Measured values published in patent US20150265682A1, “THERAPEUTIC METHODS AND COMPOSITIONS FOR TREATING DIABETES” (Orient Europharma Co., Ltd., priority 2014, published 2015).

Key:
IL-6-treated C2C12 cells = test: Glycogen content assay in IL-6-treated (insulin resistant) C2C12 cells; format: cell-based; settings: 30 minutes; for fold increase of glycogen content: IL-6-treated C2C12
Experimental: The C2C12 skeletal muscle cells were cultured in Dulbecco's modified Eagle's medium (DMEM; Gibco/Invitrogen, Carlsbad, Calif.), and the human hepatocellular carcinoma cell line, Hep3B, was cultured in Roswell Park Memorial Institute medium 1640 (RPMI 1640 medium; Gibco/Invitrogen, Carlsbad, Calif.). Cells were cultured at 37° C. in the humidified incubator supplied with 5% CO2. Culture mediums were supplemented with 4.5 mgmL^−1 glucose, penicillin 100 IUmL^−1, streptomycin 100 μgmL^−1 and 10% fetal bovine serum (Gibco/Invitrogen, Carlsbad, Calif.). Only C2C12 cells were then switched to 2% horse serum for 3 days after reaching the 70% confluence. Myotubes formation was achieved after 4 days of incubation, and the cells were used for subsequent experiments. Culture mediums were replaced by serum free DMEM or RPMI for 24 h before experiments (see e.g., procedure described in Sultan et al., 2006).
C2C12 and Hep3B cells were treated with 1 nM insulin, 100 μM metformin, and the assigned concentration of borapetoside A for 30 minutes. To develop the insulin resistance state of cells, C2C12 cells were incubated with IL-6 at 20 ngmL^−1 for 1 hour. Later, the cells were treated with 1 nM insulin, 100 μM metformin, and the assigned concentration of borapetoside A for 30 minutes. After the assigned treatment, cells were washed twice with phosphate buffered saline (PBS). Glycogen content was measured as previously described, with some modifications (see e.g., Savage et al., 2008). The protein concentrations of the cell lysates were determined by using Pierce BCA Protein Assay Kit (Thermo-Scientific, Rockford, Ill.). The glycogen content of each sample was normalized by total protein.

[1] = test system: soleus muscle of normal, type 1 DM and type 2 DM mice; test: Glycogen content in soleus muscle in vivo (borapetoside A); set-up: species or system ICR mice; settings: borapetoside A 10 mgkg^−1 i.p. 60 minutes, insulin 0.5 IUkg^−1
Experimental: After three days of acclimatization, the mice had free access to a standard rodent chow (normal mice), a standard rodent chow after single […] streptozotocin (STZ) intraperitoneal injection (T1DM mice), and a fat-rich chow diet and fructose-sweetened water (T2DM mice) for 4 weeks. The induction of Type 1 DM was assessed and confirmed when the mice had plasma glucose levels ≧350 mgdL^−1, accompanied with polyuria, hyperphagia and decreased body weight. The induction Type 2 DM in the mice was assessed by measuring fasting plasma glucose levels and confirmed when plasma glucose level was ≧150 mgdL^−1 after the 4-week induction. The animals were assigned randomly into three groups, with seven animals in each group. In group I, the mice were treated with vehicle, 2% DMSO in normal saline, as the negative control. In group II, the mice were intraperitoneally treated with borapetoside A (0.1-10 mgkg^−1). In group Ill, the positive control, the mice received intraperitoneally metformin (300 mgkg^−1; Sigma Chemical Co., St. Louis, Mo., U.S.A.) or insulin (0.5 IUkg^−1; Insulin Actrapid® HM; Novo Nordisk, Denmark). In the acute study, mice under anesthesia received a single intraperitoneal administration of borapetoside A, negative control, or positive control. In the subacute study, mice received intraperitoneal administrations of borapetoside A, vehicle, or insulin twice a day for seven days.
The mice were injected with borapetoside A (10 mgkg^−1, interperitoneal) for 60 minutes or insulin (0.5 IUkg^−1, interperitoneal) for 30 minutes. After the treatment, the anesthetic mice were sacrificed by cervical dislocation to collect the soleus muscle and liver. About 40 mg of each sample was dissolved in 1 mol/L KOH at 75° C. for 30 min. The dissolved homogenate was neutralized by glacial acetic acid and then incubated overnight in acetate buffer (0.3 mol/L sodium acetate, pH 4.8) containing amyloglucosidase (Sigma, St. Louis, Mo.). The mixture was then neutralized with 1 mol/L NaOH to stop the reaction. The glycogen contents in the tissue samples were determined as μg of glucose per mg of tissue (wet weight).

[2] = test system: soleus muscle of normal, T1DM and T2DM mice; test: Glycogen content of skeletal muscle (borapetoside C or insulin); format: in vivo, ICR mice; settings: borapetoside C 5 mg/kg i.p., insulin (Actrapid) 0.5 IU/kg i.p.
Experimental: This study was conducted following the University ethical guidelines on animal experimentation and complied with the Guide for the Care and Use of Laboratory Animals published by the US National Institutes of Health (NIH publication no. 85-23, revised 1996). The animal facility was well controlled for temperature (22±1° C.), and humidity (60±5%) and a 12 h/12 h light-dark cycle was maintained with access to food and water ad libitum. Four-week-old male ICR mice were acquired from BioLasco Taiwan Co., Ltd. and maintained at College of Medicine Experimental Animal Center, National Taiwan University. The study was conducted on 8-10 week-old male ICR mice.
T1DM mice were induced by a known method. In brief, an intraperitoneal injection of streptozotocin (STZ; Sigma Chemical Co.; St. Louis, Mo.) at 150 mg/kg was performed in mice that were fasted for 48 h. The induction of T1DM was assessed and confirmed when the mice had plasma glucose levels ≧350 mg/dL, accompanied with polyuria, hyperphagia and decreased body weight. The control mice group received an injection of vehicle and then carried out for 4 weeks. T2DM mice were induced by maintaining on a fat-rich chow diet and fructose-sweetened water for 4 weeks from the age of 4-5 weeks according to previous methods. The induction T2DM mice were assessed by measuring fasting plasma glucose levels and confirmed when plasma glucose level was ≧150 mg/dL after a 4-week induction.
Glycogen content of skeletal muscles was measured by a known method. In brief, mice were injected with borapetoside C (5.0 mg/kg, interperitoneal) for 60 min or insulin (0.5 IU/kg, interperitoneal.) for 30 min, and the soleus muscle was isolated from anesthetized mice. About 40 mg of muscle sample was dissolved in 1 N KOH at 75° C. for 30 min. The dissolved homogenate was neutralized by glacial acetic acid and then incubated overnight in acetate buffer (0.3 M sodium acetate, pH 4.8) containing amyloglucosidase (Sigma, St. Louis, Mo.). The mixture was then neutralized with 1 N NaOH to stop the reaction. The glycogen contents in the tissue samples were determined as μg of glucose per mg of tissue (wet weight).

Molecule	fold increase of glycogen content (IL-6-treated C2C12 cells; 10^−6 mol/L)	fold increase of glycogen content (IL-6-treated C2C12 cells; 10^−7 mol/L)	fold increase of glycogen content (IL-6-treated C2C12 cells; 10^−8 mol/L)	glycogen content in soleus muscle ([1]; mice with type 1 DM)	glycogen content in soleus muscle ([1]; mice with type 2 DM)	glycogen content in soleus muscle ([1]; normal mice)	glycogen content (IL-6-treated C2C12 cells; IL-6-induced insulin resistant model, 1 nM insulin)	Glycogen synthesis in skeletal muscle (glycogen content) ([2]; Normal mice)	Glycogen synthesis in skeletal muscle (glycogen content) ([2]; T1DM mice)	Glycogen synthesis in skeletal muscle (glycogen content) ([2]; T2DM mice)
C[C@@]12C[C@@H](c3ccoc3)OC(=O)[C@@H]1C[C@@H]1OC(=O)[C@@]3(O)[C@@H](O[C@@H]4O[C@H](CO)[C@@H](O)[C@H](O)[C@H]4O)CC[C@@H]2[C@@]13C [Borapetoside A, borapetoside A]	1.64±0.05 fold	1.38±0.06 fold	1.35±0.08 fold	155.6±8.6 % of vehicle control	171.8±12.0 % of vehicle control	116.5±4.2 % of vehicle control				
Insulin: human insulin, Insulin Actrapid HM, a short-acting insulin provided by Novo Nordisk [reference compound]					failed to enhance		not increased	30.2 ± 2.0 μg of glucose per mg of tissue (wet weight)	30.0 ± 1.0 μg of glucose per mg of tissue (wet weight)	20.2 ± 0.6 μg of glucose per mg of tissue (wet weight)
COC(=O)C1=CCC[C@H]2[C@]3(C)C[C@@H](c4ccoc4)OC(=O)[C@@H]3C[C@@H](O[C@@H]3O[C@H](CO)[C@@H](O)[C@H](O)[C@H]3O)[C@@]12C [Borapetoside C, borapetoside C]								25.1 ± 1.3 μg of glucose per mg of tissue (wet weight)	23.2 ± 0.7 μg of glucose per mg of tissue (wet weight)	23.3 ± 0.4 μg of glucose per mg of tissue (wet weight)
